US8476264B2, “N-(3-(2-amino-6,6-difluoro-4,4A,5,6,7,7A-hexahydro-cyclopenta[E][1,3]oxazin-4-yl)-phenylamides as BACE1 inhibitors” (Hoffmann-La Roche Inc., priority 2011, dated 2013)

What was measured:
[1] = target: T1, CYP2C9 (Homo sapiens, UniProt P11712); experiment: CYP inhibition assay, CYP2C9; assay type: in vitro ADME; conditions: human liver microsomes, diclofenac 4' hydroxylase; read-out: CYP IC50 2C9
T1 construct: 0.2 mg/ml pooled human liver microsomes; from tissue; host or cells: pooled human liver microsomes
Procedure: (§1) Inhibition of cytochromes P450 (CYPs) 2C9, 2D6 and 3A4 was assessed using human liver microsomes and CYP-selective substrate metabolism reactions. 50 μl incubations were made up containing (finally) 0.2 mg/ml pooled human liver microsomes, 5 μM substrate (diclofenac for CYP2C9 [4′ hydroxylase], dextromethorphan for CYP2D6 [O-demethylase] or midazolam for CYP3A4 [1′ hydroxylase]), 0.25 μL DMSO containing test inhibitor and NADPH regenerating system. Test inhibitor concentrations of 50, 16.7, 5.6, 1.9, 0.6 and 0.2 μM were assessed in singlicate. Incubations were pre-warmed to 37° C. for 10 minutes before initiation by addition of NADPH regenerating system. Incubations were quenched after 5 minutes (20 minutes for dextromethorphan) by addition of 50 μl cold acetonitrile containing 20 ng/ml 4-OH-diclofenac-13C6, 20 ng/mL dextrorphan-D3 and 20 ng/mL 1-OH-midazolam-D4. Quenched incubates were stored at −20° C. for at least 1 hour before centrifugation (20,000×g, 20 minutes). Supernatants were removed and diluted 1:1 with water prior to analysis using a RapidFire sample injector system and API4000 mass spectrometer. Peak areas for substrate, metabolite and stable-labelled metabolite standard were determined using MS/MS. The peak area ratios between the metabolite generated by the enzymatic reaction and the internal standard were used in subsequent calculations. The percentage of (DMSO) control activity was calculated for each incubate and IC50 values estimated by non-linear regression. Sulfaphenazole, quinidine or ketoconazole were tested in each CYP2C9, CYP2D6 or CYP3A4 inhibition experiment, respectively, to ensure assay sensitivity and reproducibility. (Validated assays for human cytochrome P450 activities, R. L. Walsky and R. S. Obach, Drug Metabolism and Disposition 32: 647-660, 2004. and S. Fowler and H. Zhang, The AAPS Journal, Vol. 10, No. 2, 410-424, 2008.)

[2] = target: T2, cathepsin D (from human liver) (Homo sapiens, UniProt P07339); experiment: Cathepsin D fluorescent substrate kinetic assay; assay type: biochemical; conditions: pH 5.5, substrate […]-MR121
T2 construct: cathepsin D (from human liver, Calbiochem) diluted in assay buffer; purchased Calbiochem; host or cells: purified from human liver
From the text: Cathepsin D and Cathepsin E Fluorescent Substrate Kinetic Assays
The MR121 fluorescence assays described below are based on the fact that MR121 forms a non-fluorescent ground state complex with tryptophan. In solution this formation occurs at millimolar concentrations of tryptophan. The mechanism can be used to design a generic biochemical assay for proteases. A substrate peptide is labeled at the N-terminus with tryptophan and at the C-terminus with the fluorophore MR121 (for cathepsin D the 10 amino acid peptide […]-MR121 was used; for cathepsin E, MR121-[…] was used). In absence of protease activity, the substrates remain intact and the MR121 fluorescence is reduced by the high local Trp-concentration. If the substrates are cleaved by the enzymes the MR121 fluorescence is recovered.
The fluorescent substrate cathepsin D and cathepsin E kinetic assays were performed at room temperature in 384-well microtiter plates (black with clear flat bottom, non binding surface plates from Corning) in a final volume of 51 μl. The test compounds were serially diluted in DMSO (15 concentrations, ⅓ dilution steps) and 1 μl of diluted compounds were mixed for 10 min with 40 μl of cathepsin D (from human liver, Calbiochem) diluted in assay buffer (100 mM sodium acetate, 0.05% BSA, pH 5.5; final concentration: 200 nM) or with 40 μl of recombinant human cathepsin E (R&D Systems) diluted in assay buffer (100 mM sodium acetate, 0.05% BSA, pH 4.5; final concentration: 0.01 nM). After addition of 10 μl of the cathepsin D substrate […]-MR121 diluted in cathepsin D assay buffer (final concentration: 300 nM) or […] cathepsin E substrate MR121-[…] diluted in cathepsin E assay buffer (final concentration: 300 nM), the plates were strongly shaken for 2 minutes. The enzymatic reaction was followed in a plate: vision reader (Perkin Elmer) (excitation wavelength: 630 nm; emission: 695 nm) for at least 30 minutes in a kinetic measurement detecting an increase of MR121 fluorescence during the reaction time. The slope in the linear range of the kinetic was calculated and the IC50 of the test compounds were determined using a four parameter equation for curve fitting.

[3] = target: T3, hERG channel (Homo sapiens, UniProt Q12809); experiment: PatchXpress hERG inhibition assay; assay type: cell-based; conditions: @ 1 μM; CHO cells transfected with hERG, automated patch clamp
T3 construct: expressed in transfected cells; host or cells: CHO cells
Procedure: PatchXpress hERG Inhibition Assay
The detailed method to quantify hERG channel inhibition by the automated patch clamp system PatchXpress® 7000A (Molecular Devices, Sunnyvale, Calif.) has been described by Guo et al. (J of Pharmacol & Tox Methods, (2005) 52(1):123-35). In brief, Chinese hamster ovary (CHO) cells transfected with the human ether-a-go-go-related gene (hERG) was cultured in Ex-cell 302 media supplemented with 10% fetal bovine serum, 2 mM glutamine and 0.25 mg/ml geneticin and maintained in a CO2 incubator at 37° C. For patch clamp electrophysiology, the external buffer contained (in mM): 150 NaCl, 10 Hepes, 4 KCl, 1.2 CaCl2, 1 MgCl2, pH 7.4 adjusted with […] and the internal recording solution contained (in mM): 140 KCl, 6 EGTA, 5 Hepes, MgCl2, 5 ATP-Na2, pH 7.2 adjusted with KOH. Once the cell was loaded in the recording chamber and formed a giga ohm seal with the planar glass electrodes (Sealchip™), a whole-cell configuration was achieved by rupturing the cell membrane. The membrane potential was then clamped at −80 mV and the hERG channel activated by a 1-second depolarizing pulse delivered at 0.1 Hz, the hERG current was measured during the 500 ms-repolarizing pulse to −40 mV. After an acceptable hERG current recording was obtained, the cell was first exposed to 0.3% DMSO as the vehicle control, followed by the test article in three ascending, full-log interval concentrations and finally E-4031 at 1 μM (as the positive control) to block the hERG current completely. […] The inhibition of hERG current at each concentration was normalized to that recorded in the vehicle control, and fitted with Hill equation to calculate IC20 and/or IC50.

[4] = target: T4, CYP2D6 (Homo sapiens, UniProt P10635); experiment: CYP inhibition assay, CYP2D6; assay type: in vitro ADME; conditions: human liver microsomes, dextromethorphan O-demethylase; read-out: CYP IC50 2D6
T4 construct: 0.2 mg/ml pooled human liver microsomes; from tissue; host or cells: pooled human liver microsomes
Procedure: as §1

[5] = target: T5, CYP3A4 (Homo sapiens, UniProt P08684); experiment: CYP inhibition assay, CYP3A4; assay type: in vitro ADME; conditions: human liver microsomes, midazolam 1' hydroxylase; read-out: CYP IC50 3A4
T5 construct: 0.2 mg/ml pooled human liver microsomes; from tissue; host or cells: pooled human liver microsomes
Procedure: as §1

T2 sequence (P07339 65-162 limits assumed): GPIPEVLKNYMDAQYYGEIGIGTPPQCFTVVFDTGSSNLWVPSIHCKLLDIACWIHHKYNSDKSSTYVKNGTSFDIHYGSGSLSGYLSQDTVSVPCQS
T2 sequence (P07339 169-412 limits assumed): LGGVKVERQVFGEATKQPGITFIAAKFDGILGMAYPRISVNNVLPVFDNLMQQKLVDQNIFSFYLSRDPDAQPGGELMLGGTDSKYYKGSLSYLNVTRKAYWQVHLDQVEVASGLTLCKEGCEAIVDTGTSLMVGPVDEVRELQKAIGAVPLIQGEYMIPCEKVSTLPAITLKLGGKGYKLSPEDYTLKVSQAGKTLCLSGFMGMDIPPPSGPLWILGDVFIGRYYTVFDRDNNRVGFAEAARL
T1 sequence (P11712 whole entry): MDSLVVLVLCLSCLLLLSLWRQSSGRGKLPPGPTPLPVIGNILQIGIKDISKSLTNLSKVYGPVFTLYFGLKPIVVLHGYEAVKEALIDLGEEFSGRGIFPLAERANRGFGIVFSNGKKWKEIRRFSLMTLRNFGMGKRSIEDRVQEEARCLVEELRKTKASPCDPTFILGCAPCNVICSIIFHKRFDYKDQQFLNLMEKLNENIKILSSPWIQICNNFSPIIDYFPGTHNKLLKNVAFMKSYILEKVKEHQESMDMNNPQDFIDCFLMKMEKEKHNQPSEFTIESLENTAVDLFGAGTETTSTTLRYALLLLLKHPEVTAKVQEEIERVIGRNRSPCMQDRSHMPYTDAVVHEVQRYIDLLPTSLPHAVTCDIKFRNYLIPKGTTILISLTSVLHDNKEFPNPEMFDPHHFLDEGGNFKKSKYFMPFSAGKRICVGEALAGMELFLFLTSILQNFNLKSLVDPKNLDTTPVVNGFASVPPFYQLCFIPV
T4 sequence (P10635 whole entry): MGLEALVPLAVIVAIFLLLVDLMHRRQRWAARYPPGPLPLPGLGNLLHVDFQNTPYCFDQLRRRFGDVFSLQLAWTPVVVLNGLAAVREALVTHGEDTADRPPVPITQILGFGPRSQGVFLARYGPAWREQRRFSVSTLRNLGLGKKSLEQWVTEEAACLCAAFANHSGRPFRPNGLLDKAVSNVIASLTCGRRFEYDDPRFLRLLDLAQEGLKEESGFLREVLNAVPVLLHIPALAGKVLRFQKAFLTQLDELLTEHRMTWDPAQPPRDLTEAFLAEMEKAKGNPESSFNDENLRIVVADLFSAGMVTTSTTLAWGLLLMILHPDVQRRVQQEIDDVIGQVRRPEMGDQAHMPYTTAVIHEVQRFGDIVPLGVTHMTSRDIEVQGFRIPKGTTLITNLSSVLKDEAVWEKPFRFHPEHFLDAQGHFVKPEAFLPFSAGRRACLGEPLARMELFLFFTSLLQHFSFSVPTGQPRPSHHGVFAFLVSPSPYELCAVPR
T5 sequence (P08684 whole entry): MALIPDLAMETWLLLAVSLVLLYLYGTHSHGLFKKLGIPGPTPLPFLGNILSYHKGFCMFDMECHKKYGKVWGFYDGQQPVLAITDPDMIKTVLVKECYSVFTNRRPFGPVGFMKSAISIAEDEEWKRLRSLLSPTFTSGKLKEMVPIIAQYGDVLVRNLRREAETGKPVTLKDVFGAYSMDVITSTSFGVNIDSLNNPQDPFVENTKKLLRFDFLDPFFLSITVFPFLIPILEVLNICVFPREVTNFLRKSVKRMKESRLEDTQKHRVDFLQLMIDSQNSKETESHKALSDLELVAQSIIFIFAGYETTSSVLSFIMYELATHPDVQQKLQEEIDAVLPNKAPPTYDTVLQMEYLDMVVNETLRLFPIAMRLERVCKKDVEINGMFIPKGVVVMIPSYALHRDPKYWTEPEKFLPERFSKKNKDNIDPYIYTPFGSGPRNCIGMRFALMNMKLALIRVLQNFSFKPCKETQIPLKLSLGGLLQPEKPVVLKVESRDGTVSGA
T3 sequence (Q12809 whole entry): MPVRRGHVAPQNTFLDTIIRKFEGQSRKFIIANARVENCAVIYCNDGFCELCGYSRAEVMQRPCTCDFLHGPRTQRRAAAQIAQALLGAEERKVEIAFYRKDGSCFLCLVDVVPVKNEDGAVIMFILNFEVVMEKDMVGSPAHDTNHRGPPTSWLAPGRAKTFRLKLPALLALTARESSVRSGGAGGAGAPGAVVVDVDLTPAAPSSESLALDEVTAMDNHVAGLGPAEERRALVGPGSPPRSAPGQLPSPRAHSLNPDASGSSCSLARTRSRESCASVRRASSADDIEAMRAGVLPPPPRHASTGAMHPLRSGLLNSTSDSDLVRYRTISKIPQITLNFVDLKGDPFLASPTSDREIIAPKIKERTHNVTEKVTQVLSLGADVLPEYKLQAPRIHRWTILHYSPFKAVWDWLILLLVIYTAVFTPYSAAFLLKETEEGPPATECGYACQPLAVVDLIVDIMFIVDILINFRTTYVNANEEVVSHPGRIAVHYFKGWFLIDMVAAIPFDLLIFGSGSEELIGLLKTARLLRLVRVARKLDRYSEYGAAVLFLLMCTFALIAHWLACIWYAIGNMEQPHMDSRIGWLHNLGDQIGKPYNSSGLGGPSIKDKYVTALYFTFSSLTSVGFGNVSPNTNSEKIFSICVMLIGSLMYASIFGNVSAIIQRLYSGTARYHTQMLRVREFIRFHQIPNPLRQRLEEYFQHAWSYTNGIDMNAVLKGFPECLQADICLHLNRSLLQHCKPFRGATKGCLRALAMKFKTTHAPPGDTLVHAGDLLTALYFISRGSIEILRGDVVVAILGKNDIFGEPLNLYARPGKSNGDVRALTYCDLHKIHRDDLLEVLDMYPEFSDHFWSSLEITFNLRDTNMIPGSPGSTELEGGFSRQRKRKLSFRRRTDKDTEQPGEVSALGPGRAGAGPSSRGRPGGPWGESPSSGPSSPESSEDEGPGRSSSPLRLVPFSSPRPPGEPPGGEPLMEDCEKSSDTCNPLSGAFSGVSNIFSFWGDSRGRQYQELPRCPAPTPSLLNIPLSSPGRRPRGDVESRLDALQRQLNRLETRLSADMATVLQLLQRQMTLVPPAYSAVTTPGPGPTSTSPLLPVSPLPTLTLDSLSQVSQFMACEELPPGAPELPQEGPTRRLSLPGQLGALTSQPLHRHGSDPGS

| Structure (SMILES) | IC50 [1] [µM] | IC50 [2] [µM] | IC50 [4] [µM] | IC50 [5] [µM] | hERG inhibition [3] |
| --- | --- | --- | --- | --- | --- |
| NC1=N[C@](CF)(c2cc(NC(=O)c3cnc(C(F)F)cn3)ccc2F)[C@H]2CC(F)(F)C[C@H]2O1 [Example 24, 5-Difluoromethyl-pyrazine-2-carboxylic acid [(S)-3-((1R,2R)-2-amino-6,6-difluoro-4-fluoromethyl-4,4a,5,6,7,7a-hexahydro-cyclopenta[e][1,3]oxazin-4-yl)-4-fluoro-phenyl]-amide] | > 10 | > 200 | > 10 | > 10 | B (less than 15% inhibition @ 1 μM) |
| N#Cc1ccc(C(=O)Nc2ccc(F)c([C@@]3(C(F)F)N=C(N)O[C@@H]4CC(F)(F)C[C@@H]43)c2)nc1 [Example 36, 5-Cyano-pyridine-2-carboxylic acid [(S)-3-((1R,2R)-2-amino-4-difluoromethyl-6,6-difluoro-4,4a,5,6,7,7a-hexahydro-cyclopenta[e][1,3]oxazin-4-yl)-4-fluoro-phenyl]-amide] | > 10 | > 200 | > 10 | > 10 | B (less than 15% inhibition @ 1 μM) |
| COc1cnc(C(=O)Nc2ccc(F)c([C@@]3(C(F)F)N=C(N)O[C@@H]4CC(F)(F)C[C@@H]43)c2)cn1 [Example 42, 5-Methoxy-pyrazine-2-carboxylic acid [(S)-3-((1R,2R)-2-amino-4-difluoromethyl-6,6-difluoro-4,4a,5,6,7,7a-hexahydro-cyclopenta[e][1,3]oxazin-4-yl)-4-fluoro-phenyl]-amide] | > 10 | > 150 | > 10 | > 10 | B (less than 15% inhibition @ 1 μM) |

Now from value to compound, other results behind:

| IC50 [1] [µM] | IC50 [2] [µM] | IC50 [4] [µM] | IC50 [5] [µM] | Structure (SMILES) | hERG inhibition [3] |
| --- | --- | --- | --- | --- | --- |
| > 10 | > 200 | > 10 | > 10 | N#Cc1ccc(C(=O)Nc2ccc(F)c([C@@]3(CF)N=C(N)O[C@@H]4CC(F)(F)C[C@@H]43)c2)nc1 [Example 3, 5-Cyano-pyridine-2-carboxylic acid [(S)-3-((1R,2R)-2-amino-6,6-difluoro-4-fluoromethyl-4,4a,5,6,7,7a-hexahydro-cyclopenta[e][1,3]oxazin-4-yl)-4-fluoro-phenyl]-amide] | B (less than 15% inhibition @ 1 μM) |
| > 10 | 93 | > 10 | > 10 | NC1=N[C@](CF)(c2cc(NC(=O)c3ccc(F)cn3)ccc2F)[C@H]2CC(F)(F)C[C@H]2O1 [Example 7, 5-Fluoro-pyridine-2-carboxylic acid [(S)-3-((1R,2R)-2-amino-6,6-difluoro-4-fluoromethyl-4,4a,5,6,7,7a-hexahydro-cyclopenta[e][1,3]oxazin-4-yl)-4-fluoro-phenyl]-amide] | A (less than 20% inhibition @ 1 μM) |
